Experimental data: patent publication US10233183B1, “13-hydroxysparteine cinnamic acid derivatives with anti-tumor activities and a method of preparing the same” (SHAANXI UNIVERSITY OF SCIENCE AND TECHNOLOGY, priority 2018, dated 2019)

Tests used:
Format in all cases: cell-based
[1] = tested on: human glioma cells (U251); assay: MTT tumor cell proliferation inhibition test, U251; settings: U-251, 48 hours treatment, read-out: Half Inhibitory Concentration IC50, U251
Source text: (§1) The compounds of the present invention were subjected to tumor cell proliferation inhibition test, and conventional MTT method was used. Cell lines used: non-small cell lung cancer cells (H1975), human hepatoma cells (HepG2), human glioma cells (U251), human gastric adenocarcinoma cells (AGS), human breast cancer cells (1590). The culture medium was DMEM+15% NBS+double antibody. […] Antitumor cytarabine (Ara-C) was used as control solution, prepared under the same condition. Cell culture: adherent growth Tumor cells were cultured in 1640 medium containing 10% inactivated neonatal bovine serum and penicillin, streptomycin (1 million U/L), placed in carbon dioxide incubator at 37° C., 5% CO2, and saturated humidity. Cells were treated serially passaged 2-3 times. The first culture was washed with PBS 2 times, and digested with trypsin. Fresh culture medium was added evenly, cells were adjusted to a appropriate concentration and transferred into a new culture flask. Cell in an exponential phase were chosen for the tests. MTT Assay for Cell Viability and IC50 Determination: Experimental Principle: Living cells mitochondria in the dehydrogenase can reduce yellow MTT to water-insoluble blue-violet product MT (MTT formazan), deposited in the cells. The amount of production is proportional to the number of living cells. […] DMSO can dissolve blue violet crystals, and the color depth is proportional to the amount contained, so the absorbance measured by the microplate reader can reflect the cell viability. Methods: The exponential phase cells were digested and counted and seeded in 96-well plates at a density of 2×10^4/mL at 100 μl per well. […] After another 4 hours, the supernatant was discarded, and 100 μl of DMSO was added to each well. After mixing, the absorbance was measured at 570 nm using a microplate reader. An IC50 calculation software was used to determine the half inhibitory concentration (IC50).

[2] = tested on: human hepatoma cells (HepG2); assay: MTT tumor cell proliferation inhibition test, HepG2; settings: 48 hours treatment, read-out: Half Inhibitory Concentration IC50, HepG2
Source text: as §1

[3] = tested on: human gastric adenocarcinoma cells (AGS); assay: MTT tumor cell proliferation inhibition test, AGS; settings: 48 hours treatment, read-out: Half Inhibitory Concentration IC50, AGS
Source text: as §1

[4] = tested on: human breast cancer cells (1590); assay: MTT tumor cell proliferation inhibition test, 1590; settings: 48 hours treatment, 1590 cells, read-out: Half Inhibitory Concentration IC50, 1590
Source text: as §1

[5] = tested on: non-small cell lung cancer cells (H1975); assay: MTT tumor cell proliferation inhibition test, H1975; settings: Homo sapiens, NCI-H1975, 48 hours treatment, read-out: Half Inhibitory Concentration IC50, H1975
Source text: as §1

[6] = tested on: different cell lines; assay: MTT tumor cell proliferation inhibition test, overall verdict; settings: summary in words of Table 1, different cell lines
Source text: as §1

Row | Compound | IC50 [1] [µM] | IC50 [2] [µM] | IC50 [3] [µM] | IC50 [4] [µM] | IC50 [5] [µM] | in vitro antitumor activities [6]
1 | Nc1ccn([C@@H]2O[C@H](CO)[C@@H](O)[C@@H]2O)c(=O)n1 [Ara-C, cytarabine, reference compound] | 39.2 ± 0.54 | 20.6 ± 0.54 | > 100 | 76.3 ± 2.48 | 19.2 ± 0.39 | –
2 | O=C(/C=C\c1ccccc1)OC1CCN2[C@@H]3C[C@@H](C[C@@H]2C1)N1CCCC[C@@H]1C3 (stereo partly drawn) [Compound A, (Z)-(6S,7aR,13S,14aR)-tetradecahydro-6,13-methanodipyrido[1,2-a:1′,2′-e][1,5]diazocin-2-yl 3-phenylacrylate] | > 100 | 36.6 ± 3.01 | 20.3 ± 1.12 | 32 ± 1.69 | 16.9 ± 1.36 | good in vitro antitumor activities
3 | O=C(/C=C\c1ccc(O)cc1)OC1CCN2[C@@H]3C[C@@H](C[C@@H]2C1)N1CCCC[C@@H]1C3 (stereo partly drawn) [Compound B, (Z)-(6S,7aR,13S,14aR)-tetradecahydro-6,13-methanodipyrido[1,2-a:1′,2′-e][1,5]diazocin-2-yl 3-(4-hydroxyphenyl)acrylate] | 74.98 ± 0.49 | 53.69 ± 0.34 | > 100 | > 100 | > 100 | –
4 | O=C(/C=C\c1cccc(O)c1)OC1CCN2[C@@H]3C[C@@H](C[C@@H]2C1)N1CCCC[C@@H]1C3 (stereo partly drawn) [Compound C, (Z)-(6S,7aR,13S,14aR)-tetradecahydro-6,13-methanodipyrido[1,2-a:1′,2′-e][1,5]diazocin-2-yl 3-(3-hydroxyphenyl)acrylate] | 5.49 ± 1.98 | 73.55 ± 0.49 | 26.3 ± 1.48 | 43.2 ± 0.95 | 23.7 ± 2.37 | good in vitro antitumor activities
5 | O=C(/C=C\c1ccc(O)c(O)c1)OC1CCN2[C@@H]3C[C@@H](C[C@@H]2C1)N1CCCC[C@@H]1C3 (stereo partly drawn) [Compound E, (Z)-(6S,7aR,13S,14aR)-tetradecahydro-6,13-methanodipyrido[1,2-a:1′,2′-e][1,5]diazocin-2-yl 3-(3,4-dihydroxyphenyl)acrylate] | 42.2 ± 0.88 | > 100 | > 100 | 36.2 ± 1.98 | 43.1 ± 1.24 | good in vitro antitumor activities
6 | COc1cc(/C=C\C(=O)OC2CCN3[C@@H]4C[C@@H](C[C@@H]3C2)N2CCCC[C@@H]2C4)ccc1O (stereo partly drawn) [Compound F, (Z)-(6S,7aR,13S,14aR)-tetradecahydro-6,13-methanodipyrido[1,2-a:1′,2′-e][1,5]diazocin-2-yl 3-(4-hydroxy-3-methoxyphenyl)acrylate] | > 100 | > 100 | > 100 | 88.6 ± 2.12 | > 100 | –
7 | COc1cc(/C=C\C(=O)OC2CCN3[C@@H]4C[C@@H](C[C@@H]3C2)N2CCCC[C@@H]2C4)cc(OC)c1O (stereo partly drawn) [Compound G, (Z)-(6S,7aR,13S,14aR)-tetradecahydro-6,13-methanodipyrido[1,2-a:1′,2′-e][1,5]diazocin-2-yl 3-(4-hydroxy-3,5-dimethoxyphenyl)acrylate] | 37 ± 1.24 | > 100 | 59.4 ± 0.97 | > 100 | 55.48 ± 0.48 | good in vitro antitumor activities
8 | Cc1ccc(/C=C\C(=O)OC2CCN3[C@@H]4C[C@@H](C[C@@H]3C2)N2CCCC[C@@H]2C4)cc1 (stereo partly drawn) [Compound H, (Z)-(6S,7aR,13S,14aR)-tetradecahydro-6,13-methanodipyrido[1,2-a:1′,2′-e][1,5]diazocin-2-yl 3-(p-tolyl)acrylate] | 75.4 ± 0.897 | 51.1 ± 1.44 | 35.7 ± 2.58 | > 100 | 29.9 ± 1.59 | good in vitro antitumor activities
9 | Cc1cc(/C=C\C(=O)OC2CCN3[C@@H]4C[C@@H](C[C@@H]3C2)N2CCCC[C@@H]2C4)ccc1O (stereo partly drawn) [Compound I, (Z)-(6S,7aR,13S,14aR)-tetradecahydro-6,13-methanodipyrido[1,2-a:1′,2′-e][1,5]diazocin-2-yl 3-(4-hydroxy-3-methylphenyl)acrylate] | 66.9 ± 1.84 | 58.7 ± 1.78 | 32.59 ± 0.29 | > 100 | > 100 | good in vitro antitumor activities
10 | Cc1cccc(/C=C\C(=O)OC2CCN3[C@@H]4C[C@@H](C[C@@H]3C2)N2CCCC[C@@H]2C4)c1 (stereo partly drawn) [Compound J, (Z)-(6S,7aR,13S,14aR)-tetradecahydro-6,13-methanodipyrido[1,2-a:1′,2′-e][1,5]diazocin-2-yl 3-(m-tolyl)acrylate] | 74.6 ± 2.94 | 88.5 ± 1.26 | > 100 | 65.43 ± 0.47 | 65 ± 1.89 | –
11 | Cc1ccccc1/C=C\C(=O)OC1CCN2[C@@H]3C[C@@H](C[C@@H]2C1)N1CCCC[C@@H]1C3 (stereo partly drawn) [Compound K, (Z)-(6S,7aR,13S,14aR)-tetradecahydro-6,13-methanodipyrido[1,2-a:1′,2′-e][1,5]diazocin-2-yl 3-(o-tolyl)acrylate] | > 100 | > 100 | 69.81 ± 0.06 | > 100 | 89.6 ± 1.34 | –
12 | O=C(/C=C\c1ccc(Cl)cc1)OC1CCN2[C@@H]3C[C@@H](C[C@@H]2C1)N1CCCC[C@@H]1C3 (stereo partly drawn) [Compound M, (Z)-(6S,7aR,13S,14aR)-tetradecahydro-6,13-methanodipyrido[1,2-a:1′,2′-e][1,5]diazocin-2-yl 3-(4-chlorophenyl)acrylate] | 45.9 ± 1.82 | 26.8 ± 1.24 | 55.54 ± 0.044 | 10.6 ± 1.33 | > 100 | good in vitro antitumor activities
